Data set [1] can be described thus: Crystal width from scanning electron microscope micrographs (FIG. 3). Type of data set: physicochemical. As for the experimental part:
Gradual cooling of the vilanterol ethanolic solution (25 mg/ml) in rubber container (4), placed in one storage compartment (3), was carried out by reducing the temperature from 37° C. to 4° C. by storing the container in a refrigerator inside the ISS until the return to Earth. The results obtained upon return to Earth show the vilanterol space grown crystals in rubber container (4).
Vilanterol (250 mg) was dissolved in 10 ml ethanol to result in a vilanterol solution having a final concentration of 25 mg/ml. Main compartment (2) of cassette (1) (FIG. 1A) was filled with 2 ml of the prepared vilanterol/ethanol solution. In addition, one rubber container (4), placed in one storage compartment (3), was filled with 1 ml heptane (anti-solvent). Cassette (1) was kept at 37° C.
After 10 days from launch into space, one plunger was released thereby activating one rubber container (4) in one storage compartment (3), allowing 1 ml of heptane to flow into main compartment (2), which, as mentioned above, comprises the vilanterol/ethanol solution. […]
The experiments performed in space on board of the ISS yielded crystals that were substantially larger and of higher crystalline order compared to their Earth-grown equivalents. […] The quantity of material manufactured in orbit was sufficient for complete characterization study and further processing tests. […]

The nature of data set [2]: Highest concentration of vilanterol dissolvable in ethanol at 37° C. Type of data set: physicochemical. The settings on record: ethanol as the solvent. As for the experimental part: In order to obtain optimal results in space, adjustment of the Vilanterol crystallization protocol to fit the system of the invention, and vice versa, was required. The original main compartment volume ranged between 0.1 to 1 ml. To maximize the amount of drug used in the experiment, and still meet the safety limitation approved by NASA, the main compartment (2) size was increased to 2 ml. The vilanterol concentration was adjusted according to the maximum temperature in which the payload could be stored on the ISS (37° C.).

Data on one compound can be found in patent publication US11760716B2, “Drug crystallization under microgravity conditions” (SPACEPHARMA R&D ISRAEL LTD., priority 2018, dated 2023).

In the case of `OCc1cc([C@@H](O)CNCCCCCCOCCOCc2c(Cl)cccc2Cl)ccc1O` [vilanterol, 4-{(1R)-2-[(6-{2-[(2,6-dichlorobenzyl)oxy]ethoxy}hexyl)amino]-1-hydroxyethyl}-2-(hydroxymethyl)phenol], the width of crystals in data set [1] (crystals crystalized in space under microgravity (FIG. 3, right hand panel)) is 10-20 microns; in data set [1] (crystals crystalized on Earth, 1 g (FIG. 3, left hand panel)), “a few”. The “highest concentration of vilanterol that could be dissolved” value in data set [2] is recorded as 2.5 % w/v.
